Measurements taken from patent US20160145242A1, “PHENYLIMIDAZOLE DERIVATIVE, AND THERAPEUTIC MEDICINE OR PREVENTIVE MEDICINE FOR INFLAMMATORY DISEASE, ETC” (NIPPON SODA CO., LTD., priority 2013, published 2016).
Read-outs that look alike come from different tables or passages of the source.

Columns and labels:
[1] = biological target: T1, guinea pig lung-derived leukotriene C4 synthase (Cavia porcellus, UniProt A6XA80); assay: Leukotriene C4 synthase activity inhibitory action; type: biochemical; details: read-out: leukotriene C4 synthase activity inhibition rate
T1 construct: guinea pig lung-derived leukotriene C4 synthase; from tissue; host or cells: Dunkin-Hartley guinea pig lung
T1 sequence (A6XA80 1-150): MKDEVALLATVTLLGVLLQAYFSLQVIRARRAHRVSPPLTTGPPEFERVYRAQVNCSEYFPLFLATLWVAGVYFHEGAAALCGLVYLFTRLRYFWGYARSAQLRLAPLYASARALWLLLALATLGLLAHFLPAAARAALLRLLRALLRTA
Experimental: The inhibitory action according to the compound of the present invention with respect to the activity of the present enzyme was examined using guinea pig lung-derived leukotriene C4 synthase.
(§1) Dunkin-Hartley guinea pig lung-derived leukotriene C4 synthase was reacted with 2.50 μg/mL of leukotriene A4 and the amount of leukotriene C4 which was a reaction product was measured by an enzyme-linked immunosorbent assay. 3 μM of the compound of the present invention dissolved in dimethyl sulfoxide was added to the reaction system and the inhibition rate of leukotriene C4 generation (leukotriene C4 synthase activity inhibition rate) was measured.

[2] = test system: human recombinant MAP kinase 1; assay: MAP kinase 1 activity inhibitory action; type: biochemical; details: 3 μM
Experimental: The inhibitory action of the compound of the present invention with respect to the activity of the present enzyme was examined using human recombinant MAP kinase 1.
The human recombinant MAP kinase 1 was reacted with 50.0 μg/mL of myelin basic protein and the amount of ^32P phosphorylated myelin basic protein which was a reaction product was measured by a radioactivity measurement method. 3 μM of the compound according to the present invention dissolved in dimethyl sulfoxide was added to the reaction system and the inhibition rate of ^32P phosphorylated myelin basic protein generation (MAP kinase 1 activity inhibition rate) was measured.

[3] = test system: guinea pig liver microsome-derived lipid peroxidase; assay: Lipid peroxidase activity inhibitory action; type: biochemical; details: 3 μM
Experimental: The inhibitory action of the compound according to the present invention with respect to the activity of the present enzyme was examined using guinea pig liver microsome-derived lipid peroxidase.
Dunkin-Hartley guinea pig lung-derived lipid peroxidase was reacted with 0.25 M of polyvalent unsaturated fatty acids and the amount of malondialdehyde which was a reaction product was measured by an absorbance determination method. 3 μM of the compound according to the present invention dissolved in dimethyl sulfoxide was added to the reaction system and the inhibition rate of malondialdehyde generation (lipid peroxidase activity inhibition rate) was measured.

[4] = biological target: T2, CYP3A4 (Homo sapiens, UniProt P08684); assay: Cytochrome P450 inhibitory action, CYP3A4 in human liver microsomes; type: in vitro ADME; details: for inhibition at 10 min, 10 µM: pooled human liver microsomes, read-out: inhibition rate in the shown concentration
T2 construct: Using human liver microsomes pooled as an enzyme source; from tissue; host or cells: pooled human liver microsomes
Experimental: An inhibitory action of the compound of the present invention with respect to CYP2D6 (dextromethorphan was used as a substrate) and CYP3A4 (midazolam and testosterone were used as substrates) which are isozymes of cytochrome P450 (hereinafter, referred to as “CYP”) serving as a major drug-metabolizing enzyme was examined using human liver microsomes.
Using human liver microsomes pooled as an enzyme source, 1.3 mM NADP as a coenzyme, 3.3 mM D-glucose-6-phosphate, and 0.4 U/mL D-glucose-6-phosphate dehydrogenase, the corresponding substrate ([…] dextromethorphan for CYP2D6, 5 μM midazolam or 50 µM testosterone for CYP3A4) and the compound of the present invention were added such that the final concentration became 0.1, 1, 10 μM and then incubated at 37° C. for 10 minutes. The inhibition rate (%) of the compound of the present invention in each concentration was calculated by quantifying metabolites (CYP2D6; dextrorphan, CYP3A4; 1-hydroxymidazolam or 6β hydroxytestosterone) using HPLC-MS/MS and setting the value of the activity of an enzyme when drug was not incorporated therein as 100%. 50% inhibitory concentration IC50 (μM) was calculated by drawing a straight line between the concentration where the inhibition rate exceeds 50% and the concentration where the inhibition rate is less than 50% in a graph showing a relationship between the inhibition rate and the concentration and interpolating the concentration that becomes 50% inhibition.

[5] = biological target: T3, guinea pig lung-derived leukotriene A4 hydrolase (Cavia porcellus, UniProt P19602); assay: Leukotriene A4 hydrolase activity inhibitory action; type: biochemical; details: read-out: leukotriene A4 hydrolase activity inhibition rate
T3 construct: guinea pig lung-derived leukotriene A4 hydrolase; from tissue; host or cells: Dunkin-Hartley guinea pig lung
T3 sequence (P19602 1-611): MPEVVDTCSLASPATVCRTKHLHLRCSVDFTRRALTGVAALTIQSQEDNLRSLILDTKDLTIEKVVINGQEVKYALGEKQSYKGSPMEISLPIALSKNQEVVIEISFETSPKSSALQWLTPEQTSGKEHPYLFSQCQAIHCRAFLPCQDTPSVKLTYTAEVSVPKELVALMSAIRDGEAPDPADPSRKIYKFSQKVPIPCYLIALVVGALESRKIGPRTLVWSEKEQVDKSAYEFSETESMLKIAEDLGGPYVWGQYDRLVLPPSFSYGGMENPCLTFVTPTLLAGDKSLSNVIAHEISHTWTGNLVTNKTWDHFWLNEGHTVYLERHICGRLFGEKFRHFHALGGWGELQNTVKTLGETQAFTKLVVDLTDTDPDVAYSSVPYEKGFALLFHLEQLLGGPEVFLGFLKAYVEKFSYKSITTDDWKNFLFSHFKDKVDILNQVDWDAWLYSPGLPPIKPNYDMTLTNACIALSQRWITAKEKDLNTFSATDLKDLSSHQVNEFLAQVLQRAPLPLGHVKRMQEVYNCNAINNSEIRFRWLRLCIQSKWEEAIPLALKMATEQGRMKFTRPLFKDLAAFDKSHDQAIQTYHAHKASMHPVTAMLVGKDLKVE
Experimental: The inhibitory action of the compound according to the present invention with respect to the activity of the present enzyme was examined using guinea pig lung-derived leukotriene A4 hydrolase.
as §1, with “A4 hydrolase” for “C4 synthase”, “[…]” for “2.50 μg/mL”, “B4” for “C4”

[6] = test system: rattlesnake-derived phospholipase A2-II; assay: Phospholipase A2-II activity inhibitory action; type: biochemical; details: 3 μM
Experimental: The inhibitory action of the compound according to the present invention with respect to the activity of the present enzyme was examined using rattlesnake-derived phospholipase A2-II.
The rattlesnake-derived phospholipase A2-II was reacted with 0.030 μCi of 1-palmitoyl-2-[1-^14C]oleoyl-L-3-phosphatidylcholine and the amount of ^14C oleate which was a reaction product was measured by a radiation measurement method. 3 μM of the compound according to the present invention dissolved in dimethyl sulfoxide was added to the reaction system and the inhibition rate of ^14C oleate generation (phospholipase A2-II activity inhibition rate) was measured.

T2 sequence (P08684 whole entry): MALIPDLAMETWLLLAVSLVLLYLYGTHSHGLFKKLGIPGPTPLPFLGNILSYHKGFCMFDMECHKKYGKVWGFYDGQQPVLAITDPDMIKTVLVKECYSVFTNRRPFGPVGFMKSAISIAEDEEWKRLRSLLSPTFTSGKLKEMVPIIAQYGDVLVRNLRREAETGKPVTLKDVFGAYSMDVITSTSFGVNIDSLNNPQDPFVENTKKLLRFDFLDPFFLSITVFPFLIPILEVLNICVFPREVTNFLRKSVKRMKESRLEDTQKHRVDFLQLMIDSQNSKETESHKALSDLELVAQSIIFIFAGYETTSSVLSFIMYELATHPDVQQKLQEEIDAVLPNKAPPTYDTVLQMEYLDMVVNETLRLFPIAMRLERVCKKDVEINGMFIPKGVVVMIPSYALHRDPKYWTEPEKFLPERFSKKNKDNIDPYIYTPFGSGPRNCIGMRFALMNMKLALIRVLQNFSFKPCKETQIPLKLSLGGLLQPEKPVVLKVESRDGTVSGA

Compound: CC(=O)N1CCN(c2ccc(N)c(-n3ccnc3)c2)CC1 [Compound 1-1, 4-acetyl-1-(4-amino-3-imidazole-1-yl-phenyl)piperazine]
- inhibition at 3 µM [1]: 27%
- MAP kinase 1 activity inhibition rate [2]: 13%
- lipid peroxidase activity inhibition rate [3]: 13%
- inhibition at 10 min, 10 µM ([4]; probe midazolam (5 μM), substrate midazolam): 28%
- inhibition at 10 min, 10 µM ([4]; probe testosterone (50 M [sic]), substrate testosterone): 6%
- IC50 ([4]; substrate midazolam): > 10 µM
- IC50 ([4]; substrate testosterone): > 10 µM
- inhibition at 3 µM [5]: 14%
- phospholipase A2-II activity inhibition rate [6]: 12%
